The values that follow come from patent US20040156869A1, “2-substituted quinazolin-4-ylamine analogues” (Neurogen Corporation, priority 2002, published 2004).

The target of the test is human capsaicin receptor (VR1) (Homo sapiens, UniProt Q8NER1). The test can be described thus: Capsaicin receptor binding assay ([3H]RTX competition, VR1-transfected HEK293 membranes).
human capsaicin receptor (VR1), sequence (Q8NER1 whole entry): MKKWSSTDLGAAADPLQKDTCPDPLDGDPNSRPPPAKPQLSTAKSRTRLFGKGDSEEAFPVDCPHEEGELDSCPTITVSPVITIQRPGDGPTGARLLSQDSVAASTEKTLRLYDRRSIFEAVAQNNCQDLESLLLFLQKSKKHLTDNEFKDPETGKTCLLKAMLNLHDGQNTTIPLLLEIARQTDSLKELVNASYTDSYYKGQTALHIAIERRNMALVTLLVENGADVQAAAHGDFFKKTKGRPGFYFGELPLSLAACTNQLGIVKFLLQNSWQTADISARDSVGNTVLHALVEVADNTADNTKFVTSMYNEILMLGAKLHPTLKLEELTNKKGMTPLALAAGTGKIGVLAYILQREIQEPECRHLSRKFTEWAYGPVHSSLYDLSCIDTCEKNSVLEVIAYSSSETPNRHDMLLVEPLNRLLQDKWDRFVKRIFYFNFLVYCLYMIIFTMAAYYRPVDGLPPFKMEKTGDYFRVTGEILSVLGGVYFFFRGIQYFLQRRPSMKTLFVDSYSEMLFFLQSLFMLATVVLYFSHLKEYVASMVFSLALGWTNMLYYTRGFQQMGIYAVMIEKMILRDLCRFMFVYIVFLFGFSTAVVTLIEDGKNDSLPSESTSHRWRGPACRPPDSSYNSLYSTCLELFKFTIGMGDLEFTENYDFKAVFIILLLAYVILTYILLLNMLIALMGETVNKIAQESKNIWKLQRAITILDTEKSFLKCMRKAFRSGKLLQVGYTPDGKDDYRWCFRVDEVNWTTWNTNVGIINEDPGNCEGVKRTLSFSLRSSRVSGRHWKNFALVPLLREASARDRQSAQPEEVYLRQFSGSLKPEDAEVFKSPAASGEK
Usually Ki stands for the dissociation constant of the complex between target and ligand, obtained from inhibition or displacement. Low values mean a stronger hold on the target, high ones a looser hold on the target. Consider `CC1CC(C)CC(NC(=O)c2nc(Nc3ccc(C(F)(F)F)cc3)c3ccc(-c4ncccc4C(F)(F)F)nc3n2)C1` (centres unmarked) [Compound 470, 4-(4-Trifluoromethyl-phenylamino)-7-(3-trifluoromethyl-pyridin-2-yl)-pyrido[2,3-d]pyrimidine-2-carboxylic acid (3,5-dimethyl-cyclohexyl)-amide], for which the Ki is < 1 µM.

With `CC(C)N1CCN(C(=O)c2nc(Nc3ccc(C(F)(F)F)cc3)c3ccc(-c4ncccc4C(F)(F)F)nc3n2)CC1` [Compound 471, (4-Isopropyl-piperazin-1-yl)-[4-(4-trifluoromethyl-phenylamino)-7-(3-trifluoromethyl-pyridin-2-yl)-pyrido[2,3-d]pyrimidin-2-yl]-methanone], the inhibition constant Ki is < 1 µM.

For the compound `CN1CCN(C(=O)c2nc(Nc3ccc(C(F)(F)F)cc3)c3ccc(-c4ncccc4C(F)(F)F)nc3n2)CC1` [Compound 472, (4-Methyl-piperazin-1-yl)-[4-(4-trifluoromethyl-phenylamino)-7-(3-trifluoromethyl-pyridin-2-yl)-pyrido[2,3-d]pyrimidin-2-yl]-methanone], the Ki is < 1 µM.

With `O=C(c1nc(Nc2ccc(C(F)(F)F)cc2)c2ccc(-c3ncccc3C(F)(F)F)nc2n1)N1CCN(C2CCCC2)CC1` [Compound 473, (4-Cyclopentyl-piperazin-1-yl)-[4-(4-trifluoromethyl-phenylamino)-7-(3-trifluoromethyl-pyridin-2-yl)-pyrido[2,3-d]pyrimidin-2-yl]-methanone], the Ki was < 1 µM.

For `O=C(c1nc(Nc2ccc(C(F)(F)F)cc2)c2ccc(-c3ncccc3C(F)(F)F)nc2n1)N1CCN(C2CCCCCC2)CC1` [Compound 474, (4-Cycloheptyl-piperazin-1-yl)-[4-(4-trifluoromethyl-phenylamino)-7-(3-trifluoromethyl-pyridin-2-yl)-pyrido[2,3-d]pyrimidin-2-yl]-methanone], the Ki is < 1 µM.

As to `CC(C)(C)c1ccc(Nc2nc(CN3CCCC3)nc3cc(-c4ncccc4C(F)(F)F)ccc23)cc1` [Compound 475, (4-tert-Butyl-phenyl)-[2-pyrrolidin-1-ylmethyl-7-(3-trifluoromethyl-pyridin-2-yl)-quinazolin-4-yl]-amine], the Ki is < 1 µM.

Turning to `CC(C)(C)c1ccc(Nc2nc(CN3CCCCC3)nc3cc(-c4ncccc4C(F)(F)F)ccc23)cc1` [Compound 476, (4-tert-Butyl-phenyl)-[2-piperidin-1-ylmethyl-7-(3-trifluoromethyl-pyridin-2-yl)-quinazolin-4-yl]-amine], the Ki was < 1 µM.

With `O=C(CCc1nc(Nc2ccc(C(F)(F)F)cc2)c2ccc(-c3ncccc3C(F)(F)F)cc2n1)N1CCCC1` [Compound 478, 1-Pyrrolidin-1-yl-3-[4-(4-trifluoromethyl-phenylamino)-7-(3-trifluoromethyl-pyridin-2-yl)-quinazolin-2-yl]-propan-1-one], the Ki is < 1 µM.

For the compound `OCCC1CCN(Cc2nc(Nc3ccc(C(F)(F)F)nc3)c3ccc(-c4ncccc4C(F)(F)F)cc3n2)CC1` [Compound 481, 2-{1-[7-(3-Trifluoromethyl-pyridin-2-yl)-4-(6-trifluoromethyl-pyridin-3-ylamino)-quinazolin-2-ylmethyl]-piperidin-4-yl}-ethanol], the Ki is < 1 µM.

As to `OCC1CCN(Cc2nc(Nc3ccc(C(F)(F)F)nc3)c3ccc(-c4ncccc4C(F)(F)F)cc3n2)CC1` [Compound 482, {1-[7-(3-Trifluoromethyl-pyridin-2-yl)-4-(6-trifluoromethyl-pyridin-3-ylamino)-quinazolin-2-ylmethyl]-piperidin-4-yl}-methanol], the Ki is < 1 µM.

On to `CCOC(=O)N1CCN(Cc2nc(Nc3ccc(C(F)(F)F)nc3)c3ccc(-c4ncccc4C(F)(F)F)cc3n2)CC1` [Compound 483, 4-[7-(3-Trifluoromethyl-pyridin-2-yl)-4-(6-trifluoromethyl-pyridin-3-ylamino)-quinazolin-2-ylmethyl]-piperazine-1-carboxylic acid ethyl ester], for which the Ki is < 1 µM.

Take `OC1CCN(Cc2nc(Nc3ccc(C(F)(F)F)nc3)c3ccc(-c4ncccc4C(F)(F)F)cc3n2)CC1` [Compound 484, 1-[7-(3-Trifluoromethyl-pyridin-2-yl)-4-(6-trifluoromethyl-pyridin-3-ylamino)-quinazolin-2-ylmethyl]-piperidin-4-ol]: the Ki is < 1 µM.

`CC1CCCN(Cc2nc(Nc3ccc(C(F)(F)F)nc3)c3ccc(-c4ncccc4C(F)(F)F)cc3n2)C1` (centres unmarked) [Compound 485, [2-(3-Methyl-piperidin-1-ylmethyl)-7-(3-trifluoromethyl-pyridin-2-yl)-quinazolin-4-yl]-(6-trifluoromethyl-pyridin-3-yl)-amine]: the Ki is < 1 µM.

With `OC1CCCN(Cc2nc(Nc3ccc(C(F)(F)F)nc3)c3ccc(-c4ncccc4C(F)(F)F)cc3n2)C1` (centres unmarked) [Compound 486, 1-[7-(3-Trifluoromethyl-pyridin-2-yl)-4-(6-trifluoromethyl-pyridin-3-ylamino)-quinazolin-2-ylmethyl]-piperidin-3-ol], the Ki is < 1 µM.

`NC(=O)C1CCN(Cc2nc(Nc3ccc(C(F)(F)F)nc3)c3ccc(-c4ncccc4C(F)(F)F)cc3n2)CC1` [Compound 487, 1-[7-(3-Trifluoromethyl-pyridin-2-yl)-4-(6-trifluoromethyl-pyridin-3-ylamino)-quinazolin-2-ylmethyl]-piperidine-4-carboxylic acid amide]: the Ki was < 1 µM.

For `CCOC(=O)C1CCCN(Cc2nc(Nc3ccc(C(F)(F)F)nc3)c3ccc(-c4ncccc4C(F)(F)F)cc3n2)C1` (centres unmarked) [Compound 488, 1-[7-(3-Trifluoromethyl-pyridin-2-yl)-4-(6-trifluoromethyl-pyridin-3-ylamino)-quinazolin-2-ylmethyl]-piperidine-3-carboxylic acid ethyl ester], the Ki is < 1 µM.

Consider `CC(=O)N1CCN(Cc2nc(Nc3ccc(C(F)(F)F)nc3)c3ccc(-c4ncccc4C(F)(F)F)cc3n2)CC1` [Compound 489, 1 -{4-[7-(3-Trifluoromethyl-pyridin-2-yl)-4-(6-trifluoromethyl-pyridin-3-ylamino)-quinazolin-2-ylmethyl]-piperazin-1-yl}-ethanone], for which the Ki was < 1 µM.

Turning to `OCC1CCCN(Cc2nc(Nc3ccc(C(F)(F)F)nc3)c3ccc(-c4ncccc4C(F)(F)F)cc3n2)C1` (centres unmarked) [Compound 490, {1-[7-(3-Trifluoromethyl-pyridin-2-yl)-4-(6-trifluoromethyl-pyridin-3-ylamino)-quinazolin-2-ylmethyl]-piperidin-3-yl}-methanol], the Ki was < 1 µM.

Take `CCOC(=O)C1CCN(Cc2nc(Nc3ccc(C(F)(F)F)nc3)c3ccc(-c4ncccc4C(F)(F)F)cc3n2)CC1` [Compound 491, 1-[7-(3-Trifluoromethyl-pyridin-2-yl)-4-(6-trifluoromethyl-pyridin-3-ylamino)-quinazolin-2-ylmethyl]-piperidine-4-carboxylic acid ethyl ester]: the Ki is < 1 µM.

On to `OCCN1CCN(Cc2nc(Nc3ccc(C(F)(F)F)nc3)c3ccc(-c4ncccc4C(F)(F)F)cc3n2)CC1` [Compound 492, 2-{4-[7-(3-Trifluoromethyl-pyridin-2-yl)-4-(6-trifluoromethyl-pyridin-3-ylamino)-quinazolin-2-ylmethyl]-piperazin-1-yl}-ethanol], for which the Ki was < 1 µM.
